Measured values from PubChem BioAssay (NCI).
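Exposure lasted 48 hours, with cells grown in 96-well plates and compounds tested at five concentrations. TGI denotes the concentration required for complete inhibition of growth.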

Legend:
Experiment in all cases: growth of human tumour cells (NCI), 48 h
786-0 renal = tested on: 786-0 renal
A498 renal = tested on: A498 renal
BT-549 breast = tested on: BT-549 breast
COLO 205 colon = tested on: COLO 205 colon
HT29 colon = tested on: HT29 colon
IGROV1 ovarian = tested on: IGROV1 ovarian
M14 melanoma = tested on: M14 melanoma
MDA-MB-435 = tested on: MDA-MB-435
MDA-N = tested on: MDA-N
OVCAR-8 ovarian = tested on: OVCAR-8 ovarian
RPMI-8226 leukemia = tested on: RPMI-8226 leukemia
SK-MEL-2 melanoma = tested on: SK-MEL-2 melanoma
SK-MEL-5 melanoma = tested on: SK-MEL-5 melanoma
SK-OV-3 ovarian = tested on: SK-OV-3 ovarian
SNB-75 CNS = tested on: SNB-75 CNS
U251 CNS = tested on: U251 CNS
UO-31 renal = tested on: UO-31 renal

Compound: Nc1ccc(C(=O)N2CCC[C@H]2CO)c(N)c1
- TGI (786-0 renal): > 100 µM
- TGI (A498 renal): > 100 µM
- TGI (BT-549 breast): > 100 µM
- TGI (COLO 205 colon): > 100 µM
- TGI (HT29 colon): > 100 µM
- TGI (IGROV1 ovarian): > 100 µM
- TGI (M14 melanoma): > 100 µM
- TGI (MDA-MB-435): > 100 µM
- TGI (MDA-N): > 100 µM
- TGI (OVCAR-8 ovarian): > 100 µM
- TGI (RPMI-8226 leukemia): > 100 µM
- TGI (SK-MEL-2 melanoma): > 100 µM
- TGI (SK-MEL-5 melanoma): > 100 µM
- TGI (SK-OV-3 ovarian): > 100 µM
- TGI (SNB-75 CNS): > 100 µM
- TGI (U251 CNS): > 100 µM
- TGI (UO-31 renal): > 100 µM

Compound: C=CCOc1ccc(C2(O)c3ccccc3C3=NCCCN32)cc1 (centres undefined)
- TGI (786-0 renal): > 78.6 µM
- TGI (A498 renal): > 100 µM
- TGI (BT-549 breast): > 100 µM
- TGI (COLO 205 colon): 43.5 µM
- TGI (HT29 colon): > 100 µM
- TGI (IGROV1 ovarian): > 100 µM
- TGI (M14 melanoma): 35.1 µM
- TGI (MDA-MB-435): > 85.6 µM
- TGI (MDA-N): > 63.2 µM
- TGI (OVCAR-8 ovarian): > 100 µM
- TGI (RPMI-8226 leukemia): > 78.5 µM
- TGI (SK-MEL-2 melanoma): 47 µM
- TGI (SK-MEL-5 melanoma): 45.7 µM
- TGI (SK-OV-3 ovarian): > 100 µM
- TGI (SNB-75 CNS): > 100 µM
- TGI (U251 CNS): > 100 µM
- TGI (UO-31 renal): > 100 µM

Compound: COc1ccc2c(c1)CCN1CCc3ccccc3CC21 (centres undefined)
- TGI (786-0 renal): > 100 µM
- TGI (A498 renal): > 100 µM
- TGI (BT-549 breast): > 100 µM
- TGI (COLO 205 colon): 46.1 µM
- TGI (HT29 colon): > 100 µM
- TGI (IGROV1 ovarian): > 100 µM
- TGI (M14 melanoma): 36.6 µM
- TGI (MDA-MB-435): > 100 µM
- TGI (MDA-N): > 100 µM
- TGI (OVCAR-8 ovarian): > 100 µM
- TGI (RPMI-8226 leukemia): 54.9 µM
- TGI (SK-MEL-2 melanoma): > 100 µM
- TGI (SK-MEL-5 melanoma): 30.2 µM
- TGI (SK-OV-3 ovarian): > 100 µM
- TGI (SNB-75 CNS): > 100 µM
- TGI (U251 CNS): > 100 µM
- TGI (UO-31 renal): 36 µM

Compound: Nc1[nH]nc2nc3ccc(C(F)(F)F)cc3nc12
- TGI (786-0 renal): 60.7 µM
- TGI (A498 renal): > 100 µM
- TGI (BT-549 breast): > 100 µM
- TGI (COLO 205 colon): 57.3 µM
- TGI (HT29 colon): > 100 µM
- TGI (IGROV1 ovarian): 72.2 µM
- TGI (M14 melanoma): > 100 µM
- TGI (MDA-MB-435): > 100 µM
- TGI (MDA-N): > 100 µM
- TGI (OVCAR-8 ovarian): 46 µM
- TGI (RPMI-8226 leukemia): > 100 µM
- TGI (SK-MEL-2 melanoma): 84.3 µM
- TGI (SK-MEL-5 melanoma): > 100 µM
- TGI (SK-OV-3 ovarian): 52.7 µM
- TGI (SNB-75 CNS): 41.3 µM
- TGI (U251 CNS): > 100 µM
- TGI (UO-31 renal): 49.9 µM

Compound: O=[N+]([O-])/C(C(Cl)=C(Cl)Cl)=C(\N1CCCCC1)n1cncn1
- TGI (786-0 renal): 52.4 µM
- TGI (A498 renal): 31.4 µM
- TGI (BT-549 breast): 31.6 µM
- TGI (COLO 205 colon): 30.3 µM
- TGI (HT29 colon): 37.5 µM
- TGI (IGROV1 ovarian): 24 µM
- TGI (M14 melanoma): 33.7 µM
- TGI (MDA-MB-435): 36.3 µM
- TGI (MDA-N): 32.8 µM
- TGI (OVCAR-8 ovarian): 40.8 µM
- TGI (RPMI-8226 leukemia): 57.2 µM
- TGI (SK-MEL-2 melanoma): 43.8 µM
- TGI (SK-MEL-5 melanoma): 25.3 µM
- TGI (SK-OV-3 ovarian): 37.3 µM
- TGI (SNB-75 CNS): 49.4 µM
- TGI (U251 CNS): 29.7 µM
- TGI (UO-31 renal): 30.8 µM

Compound: COc1nc2nccnc2c(=O)n1C
- TGI (786-0 renal): > 10 µM
- TGI (A498 renal): > 10 µM
- TGI (BT-549 breast): > 10 µM
- TGI (COLO 205 colon): > 10 µM
- TGI (HT29 colon): > 10 µM
- TGI (IGROV1 ovarian): > 10 µM
- TGI (M14 melanoma): > 10 µM
- TGI (MDA-MB-435): > 10 µM
- TGI (MDA-N): > 10 µM
- TGI (OVCAR-8 ovarian): > 10 µM
- TGI (RPMI-8226 leukemia): > 10 µM
- TGI (SK-MEL-2 melanoma): > 10 µM
- TGI (SK-MEL-5 melanoma): > 10 µM
- TGI (SK-OV-3 ovarian): > 10 µM
- TGI (SNB-75 CNS): > 10 µM
- TGI (U251 CNS): > 10 µM
- TGI (UO-31 renal): > 10 µM

Compound: CC1=NNC(=O)C1C(CC(=O)c1c[nH]c2ccccc12)C(=O)O (centres undefined)
- TGI (786-0 renal): > 100 µM
- TGI (A498 renal): > 100 µM
- TGI (BT-549 breast): > 100 µM
- TGI (COLO 205 colon): > 100 µM
- TGI (HT29 colon): > 100 µM
- TGI (IGROV1 ovarian): > 100 µM
- TGI (M14 melanoma): > 100 µM
- TGI (MDA-MB-435): > 100 µM
- TGI (MDA-N): > 100 µM
- TGI (OVCAR-8 ovarian): > 100 µM
- TGI (RPMI-8226 leukemia): > 100 µM
- TGI (SK-MEL-2 melanoma): > 100 µM
- TGI (SK-MEL-5 melanoma): > 100 µM
- TGI (SK-OV-3 ovarian): > 100 µM
- TGI (SNB-75 CNS): > 100 µM
- TGI (U251 CNS): > 100 µM
- TGI (UO-31 renal): > 100 µM
